{"source": "ChEMBL document CHEMBL4507291", "about": "(2021)", "key": {"[1]": {"target": "Dual specificity protein kinase CLK1 (Homo sapiens) (UniProt P49759)", "sequence (P49759 whole entry, looked up)": "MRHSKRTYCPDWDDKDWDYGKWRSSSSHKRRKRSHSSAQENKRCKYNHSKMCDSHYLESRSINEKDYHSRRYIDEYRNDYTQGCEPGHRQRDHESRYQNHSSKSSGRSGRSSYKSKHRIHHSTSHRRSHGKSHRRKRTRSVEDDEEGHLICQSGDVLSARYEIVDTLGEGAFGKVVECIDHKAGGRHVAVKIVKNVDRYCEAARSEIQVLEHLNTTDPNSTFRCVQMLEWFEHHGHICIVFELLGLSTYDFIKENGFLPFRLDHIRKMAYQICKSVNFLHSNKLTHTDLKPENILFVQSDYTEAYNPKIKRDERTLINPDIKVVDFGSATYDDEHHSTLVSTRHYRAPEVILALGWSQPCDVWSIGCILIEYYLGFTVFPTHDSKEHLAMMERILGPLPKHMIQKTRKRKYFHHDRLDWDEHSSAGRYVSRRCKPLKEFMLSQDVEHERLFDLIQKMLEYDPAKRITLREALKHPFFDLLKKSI"}, "[2]": {"target": "T1, Dual specificity mitogen-activated protein kinase kinase 3 (Homo sapiens) (UniProt P46734)", "T1 sequence (whole entry)": "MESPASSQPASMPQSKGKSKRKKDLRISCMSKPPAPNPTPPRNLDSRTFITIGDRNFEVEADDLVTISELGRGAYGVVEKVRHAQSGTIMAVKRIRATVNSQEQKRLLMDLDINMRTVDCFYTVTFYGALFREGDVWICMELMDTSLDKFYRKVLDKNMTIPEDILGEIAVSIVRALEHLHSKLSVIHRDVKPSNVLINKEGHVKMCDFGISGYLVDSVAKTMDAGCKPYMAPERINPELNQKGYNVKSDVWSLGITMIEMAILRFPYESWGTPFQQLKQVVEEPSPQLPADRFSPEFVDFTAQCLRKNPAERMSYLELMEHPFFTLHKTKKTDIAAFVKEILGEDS"}, "[3]": {"tested_on": "Tyrosine-protein kinase ABL1 (Homo sapiens), P00519 [E255K]"}, "[4]": {"target": "Hormonally up-regulated neu tumor-associated kinase (Homo sapiens) (UniProt P57058)"}, "[5]": {"target": "T2, Serine/threonine-protein kinase Nek2 (Homo sapiens) (UniProt P51955)", "T2 sequence (whole entry)": "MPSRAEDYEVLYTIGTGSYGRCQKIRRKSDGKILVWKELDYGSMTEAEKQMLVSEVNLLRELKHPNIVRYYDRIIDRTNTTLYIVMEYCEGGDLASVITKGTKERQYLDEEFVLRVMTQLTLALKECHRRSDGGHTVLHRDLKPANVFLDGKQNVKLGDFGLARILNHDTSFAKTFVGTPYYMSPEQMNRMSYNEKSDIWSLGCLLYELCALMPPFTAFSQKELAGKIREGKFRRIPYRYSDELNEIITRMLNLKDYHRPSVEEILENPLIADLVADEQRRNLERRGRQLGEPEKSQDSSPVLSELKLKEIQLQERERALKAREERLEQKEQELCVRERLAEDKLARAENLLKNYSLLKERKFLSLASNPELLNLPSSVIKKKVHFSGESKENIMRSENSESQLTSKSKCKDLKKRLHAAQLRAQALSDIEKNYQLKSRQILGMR"}, "[6]": {"target": "Serine/threonine-protein kinase VRK2 (Homo sapiens) (UniProt Q86Y07)", "sequence (Q86Y07 whole entry)": "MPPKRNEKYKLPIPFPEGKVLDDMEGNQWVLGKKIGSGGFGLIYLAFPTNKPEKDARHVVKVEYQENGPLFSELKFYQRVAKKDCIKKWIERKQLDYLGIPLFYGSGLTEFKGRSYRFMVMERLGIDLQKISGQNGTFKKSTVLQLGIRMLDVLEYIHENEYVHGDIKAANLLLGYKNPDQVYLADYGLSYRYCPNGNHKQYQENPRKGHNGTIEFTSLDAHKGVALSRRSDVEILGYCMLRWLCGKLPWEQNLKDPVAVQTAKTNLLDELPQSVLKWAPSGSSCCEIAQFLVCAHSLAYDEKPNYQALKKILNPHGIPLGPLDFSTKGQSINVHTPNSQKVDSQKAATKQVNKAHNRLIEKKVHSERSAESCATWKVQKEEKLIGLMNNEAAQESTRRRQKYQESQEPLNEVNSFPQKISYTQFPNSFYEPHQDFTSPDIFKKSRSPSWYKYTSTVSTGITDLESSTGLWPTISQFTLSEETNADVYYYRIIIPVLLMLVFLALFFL"}, "[7]": {"target": "T3, NUAK family SNF1-like kinase 1 (Homo sapiens) (UniProt O60285)", "T3 sequence (whole entry)": "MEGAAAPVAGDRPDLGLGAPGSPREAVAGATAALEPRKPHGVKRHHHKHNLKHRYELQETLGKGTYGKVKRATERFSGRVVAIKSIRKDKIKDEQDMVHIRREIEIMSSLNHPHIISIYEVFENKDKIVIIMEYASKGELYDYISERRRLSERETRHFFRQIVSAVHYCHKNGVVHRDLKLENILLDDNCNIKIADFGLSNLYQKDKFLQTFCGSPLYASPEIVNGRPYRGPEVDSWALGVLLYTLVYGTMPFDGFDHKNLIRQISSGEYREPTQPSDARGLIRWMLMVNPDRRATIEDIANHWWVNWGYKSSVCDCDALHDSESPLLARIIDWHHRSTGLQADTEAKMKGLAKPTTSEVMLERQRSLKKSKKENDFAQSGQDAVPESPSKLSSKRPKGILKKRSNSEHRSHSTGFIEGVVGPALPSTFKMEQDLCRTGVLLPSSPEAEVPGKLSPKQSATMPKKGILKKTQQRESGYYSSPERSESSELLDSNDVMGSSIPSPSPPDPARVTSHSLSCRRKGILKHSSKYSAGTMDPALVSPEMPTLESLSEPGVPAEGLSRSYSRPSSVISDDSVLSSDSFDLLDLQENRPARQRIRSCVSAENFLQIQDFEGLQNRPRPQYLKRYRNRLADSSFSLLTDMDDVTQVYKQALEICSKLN"}, "[8]": {"target": "SRSF protein kinase 1 (Homo sapiens) (UniProt Q96SB4)", "sequence (Q96SB4 whole entry)": "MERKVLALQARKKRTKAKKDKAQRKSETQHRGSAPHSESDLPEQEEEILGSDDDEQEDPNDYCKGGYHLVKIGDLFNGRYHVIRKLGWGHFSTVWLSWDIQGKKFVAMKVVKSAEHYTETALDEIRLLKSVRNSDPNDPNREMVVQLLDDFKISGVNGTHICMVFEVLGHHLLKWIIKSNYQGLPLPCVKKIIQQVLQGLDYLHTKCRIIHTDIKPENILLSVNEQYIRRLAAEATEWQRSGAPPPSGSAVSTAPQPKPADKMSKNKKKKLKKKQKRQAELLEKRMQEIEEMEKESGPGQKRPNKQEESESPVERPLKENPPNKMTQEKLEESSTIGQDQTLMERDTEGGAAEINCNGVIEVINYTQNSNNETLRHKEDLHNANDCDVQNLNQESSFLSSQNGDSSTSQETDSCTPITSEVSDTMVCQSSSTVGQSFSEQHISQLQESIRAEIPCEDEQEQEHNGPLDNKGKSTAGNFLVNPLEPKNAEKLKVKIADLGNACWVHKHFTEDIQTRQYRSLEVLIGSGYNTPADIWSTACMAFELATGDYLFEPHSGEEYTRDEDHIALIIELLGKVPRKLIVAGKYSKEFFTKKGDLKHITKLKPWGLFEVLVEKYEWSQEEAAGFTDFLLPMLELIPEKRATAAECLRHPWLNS"}, "[9]": {"target": "Cyclin-dependent kinase 17 (Homo sapiens) (UniProt Q00537)"}, "[10]": {"tested_on": "Phosphatidylinositol 4,5-bisphosphate 3-kinase catalytic subunit alpha isoform (Homo sapiens), P42336 [Q546K]"}, "[11]": {"tested_on": "Hepatocyte growth factor receptor (Homo sapiens), P08581 [M1250T]"}, "[12]": {"target": "Phosphatidylinositol 5-phosphate 4-kinase type-2 beta (Homo sapiens) (UniProt P78356)"}, "[13]": {"target": "Ribosomal protein S6 kinase alpha-5 (Homo sapiens) (UniProt O75582)"}, "[14]": {"target": "Serine/threonine-protein kinase 10 (Homo sapiens) (UniProt O94804)", "sequence (O94804 whole entry, looked up)": "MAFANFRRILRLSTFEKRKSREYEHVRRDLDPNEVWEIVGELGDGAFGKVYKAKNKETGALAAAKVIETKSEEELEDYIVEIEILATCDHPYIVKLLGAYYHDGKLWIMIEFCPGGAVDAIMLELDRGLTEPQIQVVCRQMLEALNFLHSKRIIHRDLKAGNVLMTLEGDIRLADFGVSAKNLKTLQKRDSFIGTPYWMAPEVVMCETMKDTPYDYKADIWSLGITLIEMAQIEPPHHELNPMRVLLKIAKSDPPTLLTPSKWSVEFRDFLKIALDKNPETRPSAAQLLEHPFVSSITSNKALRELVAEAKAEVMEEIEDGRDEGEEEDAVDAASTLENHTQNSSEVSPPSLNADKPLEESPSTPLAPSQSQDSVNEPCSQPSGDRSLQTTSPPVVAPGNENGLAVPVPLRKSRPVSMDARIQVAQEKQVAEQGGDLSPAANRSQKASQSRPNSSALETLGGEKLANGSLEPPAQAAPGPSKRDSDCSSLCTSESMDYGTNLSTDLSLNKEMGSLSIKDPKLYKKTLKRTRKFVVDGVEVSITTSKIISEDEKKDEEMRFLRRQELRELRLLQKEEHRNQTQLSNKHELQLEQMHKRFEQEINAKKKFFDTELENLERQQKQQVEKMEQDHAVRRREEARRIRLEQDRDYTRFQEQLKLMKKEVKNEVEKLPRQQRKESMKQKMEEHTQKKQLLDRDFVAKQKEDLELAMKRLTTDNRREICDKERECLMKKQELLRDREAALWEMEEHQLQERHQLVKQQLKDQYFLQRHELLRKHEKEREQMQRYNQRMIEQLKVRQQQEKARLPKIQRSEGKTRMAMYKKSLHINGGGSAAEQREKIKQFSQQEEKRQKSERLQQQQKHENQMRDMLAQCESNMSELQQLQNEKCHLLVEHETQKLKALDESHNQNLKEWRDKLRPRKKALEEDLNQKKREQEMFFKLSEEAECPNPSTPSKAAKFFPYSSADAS"}, "[15]": {"target": "Serine/threonine-protein kinase RIO1 (Homo sapiens) (UniProt Q9BRS2)", "sequence (Q9BRS2 whole entry)": "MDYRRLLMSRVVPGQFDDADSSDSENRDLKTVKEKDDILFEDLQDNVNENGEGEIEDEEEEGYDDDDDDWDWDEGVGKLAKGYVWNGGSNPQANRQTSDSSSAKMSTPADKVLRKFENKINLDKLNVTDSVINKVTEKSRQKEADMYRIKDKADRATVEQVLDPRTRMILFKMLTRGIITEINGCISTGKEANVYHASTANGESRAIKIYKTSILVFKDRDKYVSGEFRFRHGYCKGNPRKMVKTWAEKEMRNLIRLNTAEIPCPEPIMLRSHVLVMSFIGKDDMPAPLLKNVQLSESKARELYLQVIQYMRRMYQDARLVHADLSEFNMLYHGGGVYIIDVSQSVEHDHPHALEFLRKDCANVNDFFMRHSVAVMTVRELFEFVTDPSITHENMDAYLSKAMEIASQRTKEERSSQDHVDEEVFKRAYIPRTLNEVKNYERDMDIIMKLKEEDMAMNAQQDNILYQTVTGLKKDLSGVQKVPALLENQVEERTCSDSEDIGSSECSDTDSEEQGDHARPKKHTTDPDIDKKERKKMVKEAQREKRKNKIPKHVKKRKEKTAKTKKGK"}, "[16]": {"target": "Serine/threonine-protein kinase mTOR (Homo sapiens) (UniProt P42345)"}, "[17]": {"target": "Serine/threonine-protein kinase 25 (Homo sapiens) (UniProt O00506)", "sequence (O00506 whole entry, looked up)": "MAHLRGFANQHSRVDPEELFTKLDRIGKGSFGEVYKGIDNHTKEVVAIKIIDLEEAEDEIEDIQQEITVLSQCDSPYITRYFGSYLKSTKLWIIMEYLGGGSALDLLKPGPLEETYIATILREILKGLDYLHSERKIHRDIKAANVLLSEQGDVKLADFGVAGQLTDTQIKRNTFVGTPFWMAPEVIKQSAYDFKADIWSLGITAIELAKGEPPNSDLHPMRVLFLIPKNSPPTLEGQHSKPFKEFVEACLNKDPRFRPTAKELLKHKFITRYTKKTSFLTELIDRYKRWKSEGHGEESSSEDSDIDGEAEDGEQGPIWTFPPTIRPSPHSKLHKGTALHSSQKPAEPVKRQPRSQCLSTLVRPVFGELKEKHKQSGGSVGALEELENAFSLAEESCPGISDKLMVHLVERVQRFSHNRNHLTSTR"}, "[18]": {"target": "Mitogen-activated protein kinase kinase kinase kinase 4 (Homo sapiens) (UniProt O95819)", "sequence (O95819 2-1239 limits assumed)": "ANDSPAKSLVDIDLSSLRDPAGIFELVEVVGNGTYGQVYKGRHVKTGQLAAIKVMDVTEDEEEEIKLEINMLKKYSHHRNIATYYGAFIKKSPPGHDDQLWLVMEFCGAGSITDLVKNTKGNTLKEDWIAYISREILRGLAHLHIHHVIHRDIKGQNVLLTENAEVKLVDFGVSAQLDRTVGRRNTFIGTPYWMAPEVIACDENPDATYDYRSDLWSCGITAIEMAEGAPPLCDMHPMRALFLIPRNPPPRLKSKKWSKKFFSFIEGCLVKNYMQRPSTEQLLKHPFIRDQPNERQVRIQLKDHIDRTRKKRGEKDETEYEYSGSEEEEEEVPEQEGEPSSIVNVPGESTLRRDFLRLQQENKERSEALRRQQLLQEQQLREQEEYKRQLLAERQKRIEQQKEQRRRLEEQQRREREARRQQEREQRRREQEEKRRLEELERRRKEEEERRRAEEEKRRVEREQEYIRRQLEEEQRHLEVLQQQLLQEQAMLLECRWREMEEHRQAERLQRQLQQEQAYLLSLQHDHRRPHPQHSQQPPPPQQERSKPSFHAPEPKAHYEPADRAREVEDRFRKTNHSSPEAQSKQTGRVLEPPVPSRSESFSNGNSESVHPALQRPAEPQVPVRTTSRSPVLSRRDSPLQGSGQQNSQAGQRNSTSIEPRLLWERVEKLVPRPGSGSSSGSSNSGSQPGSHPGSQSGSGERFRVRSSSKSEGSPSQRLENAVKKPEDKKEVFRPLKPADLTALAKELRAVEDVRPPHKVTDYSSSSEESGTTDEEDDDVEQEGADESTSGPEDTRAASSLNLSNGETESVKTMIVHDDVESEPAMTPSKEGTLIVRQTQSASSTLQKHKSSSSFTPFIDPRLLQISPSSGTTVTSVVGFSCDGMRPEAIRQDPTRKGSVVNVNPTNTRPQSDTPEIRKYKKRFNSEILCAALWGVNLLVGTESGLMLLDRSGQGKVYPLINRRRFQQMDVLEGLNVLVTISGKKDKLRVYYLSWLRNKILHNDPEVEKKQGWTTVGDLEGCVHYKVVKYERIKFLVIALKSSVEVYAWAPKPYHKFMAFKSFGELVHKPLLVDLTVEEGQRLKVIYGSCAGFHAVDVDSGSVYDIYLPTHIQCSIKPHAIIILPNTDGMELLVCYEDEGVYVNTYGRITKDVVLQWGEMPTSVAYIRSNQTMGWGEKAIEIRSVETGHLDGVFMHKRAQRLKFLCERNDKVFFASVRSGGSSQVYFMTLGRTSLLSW"}, "[19]": {"target": "Insulin receptor (Homo sapiens) (UniProt P06213)"}, "[20]": {"details": "Compound concentration 100.0 nM"}, "[21]": {"details": "Compound concentration 1000.0 nM"}}}
{"smiles": "C[C@@H]1CN(c2cc(-c3n[nH]c4ccc(OC5(C)CC5)cc34)ncn2)C[C@H](C)O1", "note": "[MLi-2]", "values": [{"measurement": "residual activity", "setting": "[1]; [20]", "value": 86, "unit": "%"}, {"measurement": "residual activity", "setting": "[2]; [20]", "value": 71, "unit": "%"}, {"measurement": "residual activity", "setting": "[3]; [20]", "value": 66, "unit": "%"}, {"measurement": "residual activity", "setting": "[4]; [20]", "value": 79, "unit": "%"}, {"measurement": "residual activity", "setting": "[5]; [20]", "value": 86, "unit": "%"}, {"measurement": "residual activity", "setting": "[6]; [20]", "value": 65, "unit": "%"}, {"measurement": "residual activity", "setting": "[7]; [20]", "value": 92, "unit": "%"}, {"measurement": "residual activity", "setting": "[8]; [20]", "value": 100, "unit": "%"}, {"measurement": "residual activity", "setting": "[9]; [20]", "value": 89, "unit": "%"}, {"measurement": "residual activity", "setting": "[10]; [20]", "value": 69, "unit": "%"}, {"measurement": "residual activity", "setting": "[11]; [20]", "value": 79, "unit": "%"}, {"measurement": "residual activity", "setting": "[12]; [20]", "value": 81, "unit": "%"}, {"measurement": "residual activity", "setting": "[13]; [20]", "value": 97, "unit": "%"}, {"measurement": "residual activity", "setting": "[14]; [20]", "value": 83, "unit": "%"}, {"measurement": "residual activity", "setting": "[15]; [20]", "value": 100, "unit": "%"}, {"measurement": "residual activity", "setting": "[16]; [20]", "value": 99, "unit": "%"}, {"measurement": "residual activity", "setting": "[17]; [20]", "value": 100, "unit": "%"}, {"measurement": "residual activity", "setting": "[18]; [20]", "value": 98, "unit": "%"}, {"measurement": "residual activity", "setting": "[19]; [20]", "value": 100, "unit": "%"}]}
{"smiles": "C[C@@H]1CN(c2cc(-c3nn(C)c4ccc(OC5(C)CC5)cc34)ncn2)C[C@H](C)O1", "note": "[MLi-2-NC]", "values": [{"measurement": "residual activity", "setting": "[1]; [21]", "value": 86, "unit": "%"}, {"measurement": "residual activity", "setting": "[2]; [21]", "value": 70, "unit": "%"}, {"measurement": "residual activity", "setting": "[3]; [21]", "value": 79, "unit": "%"}, {"measurement": "residual activity", "setting": "[4]; [21]", "value": 100, "unit": "%"}, {"measurement": "residual activity", "setting": "[5]; [21]", "value": 100, "unit": "%"}, {"measurement": "residual activity", "setting": "[6]; [21]", "value": 73, "unit": "%"}, {"measurement": "residual activity", "setting": "[7]; [21]", "value": 100, "unit": "%"}, {"measurement": "residual activity", "setting": "[8]; [21]", "value": 88, "unit": "%"}, {"measurement": "residual activity", "setting": "[9]; [21]", "value": 88, "unit": "%"}, {"measurement": "residual activity", "setting": "[10]; [21]", "value": 39, "unit": "%"}, {"measurement": "residual activity", "setting": "[11]; [21]", "value": 93, "unit": "%"}, {"measurement": "residual activity", "setting": "[12]; [21]", "value": 84, "unit": "%"}, {"measurement": "residual activity", "setting": "[13]; [21]", "value": 100, "unit": "%"}, {"measurement": "residual activity", "setting": "[14]; [21]", "value": 91, "unit": "%"}, {"measurement": "residual activity", "setting": "[15]; [21]", "value": 89, "unit": "%"}, {"measurement": "residual activity", "setting": "[16]; [21]", "value": 100, "unit": "%"}, {"measurement": "residual activity", "setting": "[17]; [21]", "value": 100, "unit": "%"}, {"measurement": "residual activity", "setting": "[18]; [21]", "value": 100, "unit": "%"}, {"measurement": "residual activity", "setting": "[19]; [21]", "value": 100, "unit": "%"}]}
